How the values were obtained:
EPHA4 = biological target: T1, EPHA4 (Homo sapiens, UniProt P54764); experiment: NanoBRET target engagement, Tracer K10 displacement in live HEK293 cells; type: cell-based; settings: […] h, […] C, n = […]
T1 construct: full-length kinase, C-terminal NanoLuc fusion, transfected HEK293 cells

NTRK1 = biological target: T2, NTRK1 (Homo sapiens, UniProt P04629); experiment: as above; type: cell-based; settings: […] h, […] C, n = […]
T2 construct: full-length kinase, C-terminal NanoLuc fusion, transfected HEK293 cells
Description: NanoBRET target engagement, Tracer K10 displacement in live HEK293 cells on NTRK1

SBK3 = biological target: T3, SBK3 (Homo sapiens, UniProt P0C264); experiment: as above; type: cell-based; settings: […] h, […] C, n = […]
T3 construct: full-length kinase, N-terminal NanoLuc fusion, transfected HEK293 cells
Description: NanoBRET target engagement, Tracer K10 displacement in live HEK293 cells on SBK3

EPHB1 = biological target: T4, EPHB1 (Homo sapiens, UniProt P54762); experiment: as above; type: cell-based; settings: […] h, […] C, n = […]
T4 construct: full-length kinase, C-terminal NanoLuc fusion, transfected HEK293 cells
T4 sequence (P54762 18-984): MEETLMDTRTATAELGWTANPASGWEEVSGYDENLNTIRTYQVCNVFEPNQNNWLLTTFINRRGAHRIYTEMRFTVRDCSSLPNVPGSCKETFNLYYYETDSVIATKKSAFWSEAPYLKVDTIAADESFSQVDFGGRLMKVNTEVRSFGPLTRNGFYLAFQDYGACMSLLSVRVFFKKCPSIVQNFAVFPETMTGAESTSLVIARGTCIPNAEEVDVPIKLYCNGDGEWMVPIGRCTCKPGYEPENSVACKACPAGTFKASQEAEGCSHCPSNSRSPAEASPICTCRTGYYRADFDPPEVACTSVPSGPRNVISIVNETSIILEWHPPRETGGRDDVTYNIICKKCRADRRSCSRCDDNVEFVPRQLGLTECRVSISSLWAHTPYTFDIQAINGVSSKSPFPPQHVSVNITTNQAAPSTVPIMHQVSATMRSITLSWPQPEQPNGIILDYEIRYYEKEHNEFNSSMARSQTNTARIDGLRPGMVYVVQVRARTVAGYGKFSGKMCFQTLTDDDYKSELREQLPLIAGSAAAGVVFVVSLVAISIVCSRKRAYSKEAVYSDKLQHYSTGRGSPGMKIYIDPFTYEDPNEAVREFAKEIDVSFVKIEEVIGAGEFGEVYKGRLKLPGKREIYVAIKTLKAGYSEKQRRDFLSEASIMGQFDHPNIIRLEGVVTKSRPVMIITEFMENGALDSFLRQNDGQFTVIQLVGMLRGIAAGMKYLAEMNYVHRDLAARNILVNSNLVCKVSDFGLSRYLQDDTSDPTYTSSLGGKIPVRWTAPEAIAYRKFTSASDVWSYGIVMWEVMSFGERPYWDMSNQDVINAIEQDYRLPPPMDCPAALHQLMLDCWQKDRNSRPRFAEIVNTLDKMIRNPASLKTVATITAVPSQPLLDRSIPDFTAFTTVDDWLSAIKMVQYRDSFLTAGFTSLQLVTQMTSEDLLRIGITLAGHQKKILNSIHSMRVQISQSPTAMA
Description: NanoBRET target engagement, Tracer K10 displacement in live HEK293 cells on EPHB1

EPHA7 = biological target: T5, EPHA7 (Homo sapiens, UniProt Q15375); experiment: as above; type: cell-based; settings: […] h, […] C, n = […]
T5 construct: full-length kinase, C-terminal NanoLuc fusion, transfected HEK293 cells
Description: NanoBRET target engagement, Tracer K10 displacement in live HEK293 cells on EPHA7

EPHA1 = biological target: T6, EPHA1 (Homo sapiens, UniProt P21709); experiment: as above; type: cell-based; settings: […] h, […] C, n = […]
T6 construct: full-length kinase, C-terminal NanoLuc fusion, transfected HEK293 cells
Description: NanoBRET target engagement, Tracer K10 displacement in live HEK293 cells on EPHA1

MAP3K10 = MAP3K10 (Homo sapiens, UniProt Q02779); experiment: cell-based; parameters: NanoBRET live-cell target engagement; % occupancy from displacement of tracer K10 on NanoLuc-kinase fusions, mean n=3; settings: HEK293, read-out: % inhibition
Description: (§1) • 18. Prepare 10× test compounds in OptiMEM • a. Dilute the test compound to 1000× in DMSO (or the test compound solvent). […] Add 10μL per well of 10× test compound or 10μL of the DMSO control to the 96-well plates containing cells with 1× tracer. Mix on orbital shaker for 15 s at 900 rpm. • 20. Incubate the plate at 37°C + 5% CO2 incubator for 2hr. Allow plate to cool to RT for ∼15 min, then proceed to NanoBRET^TM Assay section below. • 21. Immediately before the BRET measurements, prepare 3× Complete NanoBRET^TM Nano-Glo® Substrate in OptiMEM without serum or phenol red. […] Mix gently by inverting 5–10 times in a conical tube. (The final concentration of Extracellular NanoLuc inhibitor in the 3× solution is 60 μM, for a working concentration of 20 μM.) • a. Note: 3× solutions should be used within 1.5 h after preparation. • 22. […] Incubate 2–3 min at RT. Following addition of NanoBRET^TM Nano-Glo® Substrate, measure donor emission (e.g., 450 nm) and acceptor emission (e.g., 610 nm or 630 nm) using a NanoBRET™-compatible luminometer. Fractional occupancy Quantitation • 2. Determine Fractional Occupancy with the following equation; % Occupancy = [1 – (X – Z)/( Y – Z)]∗100 • Where: • X = BRET in the presence of the test compound and tracer, • Y = BRET in the presence of the 100% BRET Control (Tracer + DMSO) • Z = BRET for the Zero BRET Control, e.g., • a. BRET from the NanoLuc Control Vector • b. BRET from Kinase/NanoLuc fusion + saturating dose of control test compound.

SIK1 = SIK1 (Homo sapiens, UniProt P57059); experiment: cell-based; parameters: NanoBRET live-cell target engagement; % occupancy from displacement of tracer K10 on NanoLuc-kinase fusions, mean n=3; settings: HEK293, read-out: % inhibition
SIK1, sequence (P57059 whole entry, the tested form may be a part): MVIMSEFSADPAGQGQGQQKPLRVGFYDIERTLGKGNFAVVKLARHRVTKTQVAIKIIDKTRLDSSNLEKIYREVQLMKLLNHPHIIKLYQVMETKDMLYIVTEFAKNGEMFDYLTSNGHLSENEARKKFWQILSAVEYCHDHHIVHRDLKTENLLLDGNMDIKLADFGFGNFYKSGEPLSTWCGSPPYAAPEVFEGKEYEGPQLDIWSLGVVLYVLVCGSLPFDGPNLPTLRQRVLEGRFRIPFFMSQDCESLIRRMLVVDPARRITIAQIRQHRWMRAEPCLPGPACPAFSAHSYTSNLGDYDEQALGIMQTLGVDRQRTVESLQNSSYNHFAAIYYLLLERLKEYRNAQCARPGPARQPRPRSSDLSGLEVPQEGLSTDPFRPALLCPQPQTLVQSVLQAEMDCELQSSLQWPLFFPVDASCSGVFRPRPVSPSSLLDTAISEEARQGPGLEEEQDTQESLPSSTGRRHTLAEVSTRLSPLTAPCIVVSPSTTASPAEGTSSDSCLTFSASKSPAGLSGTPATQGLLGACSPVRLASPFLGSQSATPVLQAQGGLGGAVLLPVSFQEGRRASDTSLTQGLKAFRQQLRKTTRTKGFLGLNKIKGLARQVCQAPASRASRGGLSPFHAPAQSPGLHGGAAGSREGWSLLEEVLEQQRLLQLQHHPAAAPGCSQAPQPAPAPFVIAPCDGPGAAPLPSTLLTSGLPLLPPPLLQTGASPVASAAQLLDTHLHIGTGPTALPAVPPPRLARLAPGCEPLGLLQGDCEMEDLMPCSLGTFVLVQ
Description: as §1

PRKAA2 = PRKAA2 (Homo sapiens, UniProt P54646); experiment: cell-based; parameters: NanoBRET live-cell target engagement; % occupancy from displacement of tracer K10 on NanoLuc-kinase fusions, mean n=3; settings: HEK293, read-out: % inhibition
Description: as §1

IRAK4 = IRAK4 (Homo sapiens, UniProt Q9NWZ3); experiment: cell-based; parameters: NanoBRET live-cell target engagement; % occupancy from displacement of tracer K10 on NanoLuc-kinase fusions, mean n=3; settings: HEK293, read-out: % inhibition
IRAK4, sequence (Q9NWZ3 whole entry, the tested form may be a part): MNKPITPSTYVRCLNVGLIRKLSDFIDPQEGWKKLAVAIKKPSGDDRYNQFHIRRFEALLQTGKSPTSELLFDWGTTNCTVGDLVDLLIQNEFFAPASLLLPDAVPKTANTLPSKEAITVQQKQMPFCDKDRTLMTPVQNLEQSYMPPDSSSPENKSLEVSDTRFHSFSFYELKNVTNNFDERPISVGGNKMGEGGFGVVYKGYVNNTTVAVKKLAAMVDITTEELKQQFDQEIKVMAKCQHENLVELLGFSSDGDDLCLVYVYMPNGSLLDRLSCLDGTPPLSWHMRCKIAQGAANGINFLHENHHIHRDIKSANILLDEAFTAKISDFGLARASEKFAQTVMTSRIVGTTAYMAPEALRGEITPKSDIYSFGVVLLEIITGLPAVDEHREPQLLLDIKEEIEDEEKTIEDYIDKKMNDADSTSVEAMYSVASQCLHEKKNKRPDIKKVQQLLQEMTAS
Description: as §1

SGK1 = SGK1 (Homo sapiens, UniProt O00141); experiment: cell-based; parameters: NanoBRET live-cell target engagement; % occupancy from displacement of tracer K10 on NanoLuc-kinase fusions, mean n=3; settings: HEK293, read-out: % inhibition
SGK1, sequence (O00141 whole entry, the tested form may be a part): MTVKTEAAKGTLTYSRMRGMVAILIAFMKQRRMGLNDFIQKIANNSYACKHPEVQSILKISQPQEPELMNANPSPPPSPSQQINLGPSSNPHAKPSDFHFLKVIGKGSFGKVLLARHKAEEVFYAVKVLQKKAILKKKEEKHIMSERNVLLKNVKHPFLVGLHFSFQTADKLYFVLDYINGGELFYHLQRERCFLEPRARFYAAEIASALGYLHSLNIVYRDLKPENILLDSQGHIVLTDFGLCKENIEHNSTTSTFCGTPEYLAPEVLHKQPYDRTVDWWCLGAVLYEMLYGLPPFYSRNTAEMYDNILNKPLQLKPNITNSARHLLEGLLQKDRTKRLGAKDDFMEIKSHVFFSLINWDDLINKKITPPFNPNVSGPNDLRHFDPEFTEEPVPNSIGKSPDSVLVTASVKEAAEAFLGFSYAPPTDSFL
Description: as §1

NEK5 = NEK5 (Homo sapiens, UniProt Q6P3R8); experiment: cell-based; parameters: NanoBRET live-cell target engagement; % occupancy from displacement of tracer K10 on NanoLuc-kinase fusions, mean n=3; settings: HEK293, read-out: % inhibition
Description: as §1

MAP3K19 = MAP3K19 (Homo sapiens, UniProt Q56UN5); experiment: cell-based; parameters: NanoBRET live-cell target engagement; % occupancy from displacement of tracer K10 on NanoLuc-kinase fusions, mean n=3; settings: HEK293, read-out: % inhibition
MAP3K19, sequence (Q56UN5 whole entry, the tested form may be a part): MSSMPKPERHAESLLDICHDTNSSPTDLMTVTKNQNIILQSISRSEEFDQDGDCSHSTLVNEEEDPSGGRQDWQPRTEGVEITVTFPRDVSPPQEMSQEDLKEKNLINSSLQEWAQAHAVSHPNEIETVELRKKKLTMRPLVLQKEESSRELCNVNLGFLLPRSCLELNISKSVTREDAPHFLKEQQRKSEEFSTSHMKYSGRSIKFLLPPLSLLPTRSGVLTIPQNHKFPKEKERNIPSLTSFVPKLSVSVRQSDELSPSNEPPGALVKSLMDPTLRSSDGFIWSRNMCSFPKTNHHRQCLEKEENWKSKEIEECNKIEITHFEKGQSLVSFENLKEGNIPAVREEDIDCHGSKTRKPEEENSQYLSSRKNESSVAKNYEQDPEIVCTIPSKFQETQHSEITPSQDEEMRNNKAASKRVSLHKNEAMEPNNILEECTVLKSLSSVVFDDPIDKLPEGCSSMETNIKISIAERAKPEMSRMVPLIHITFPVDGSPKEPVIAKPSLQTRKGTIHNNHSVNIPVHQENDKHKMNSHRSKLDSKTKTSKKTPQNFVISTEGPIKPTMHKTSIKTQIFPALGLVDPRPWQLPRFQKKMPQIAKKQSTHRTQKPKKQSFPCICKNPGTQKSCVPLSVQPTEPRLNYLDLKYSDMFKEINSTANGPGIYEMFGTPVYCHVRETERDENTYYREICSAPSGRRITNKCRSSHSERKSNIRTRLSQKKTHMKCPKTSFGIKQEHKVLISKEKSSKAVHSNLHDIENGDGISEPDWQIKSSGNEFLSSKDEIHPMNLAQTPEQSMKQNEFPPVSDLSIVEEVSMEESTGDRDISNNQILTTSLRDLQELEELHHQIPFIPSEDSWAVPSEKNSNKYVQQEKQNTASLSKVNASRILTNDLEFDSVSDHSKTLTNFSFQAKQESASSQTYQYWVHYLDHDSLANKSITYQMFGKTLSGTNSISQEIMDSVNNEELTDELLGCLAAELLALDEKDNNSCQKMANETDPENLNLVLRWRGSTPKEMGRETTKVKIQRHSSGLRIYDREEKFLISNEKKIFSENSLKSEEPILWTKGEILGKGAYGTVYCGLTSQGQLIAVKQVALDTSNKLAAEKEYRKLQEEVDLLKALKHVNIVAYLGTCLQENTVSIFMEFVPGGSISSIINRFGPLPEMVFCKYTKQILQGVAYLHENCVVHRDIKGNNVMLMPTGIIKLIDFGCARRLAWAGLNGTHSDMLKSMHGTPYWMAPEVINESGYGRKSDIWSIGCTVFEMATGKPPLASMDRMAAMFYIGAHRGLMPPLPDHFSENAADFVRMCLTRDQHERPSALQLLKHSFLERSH
Description: as §1

STK11 = STK11 (Homo sapiens, UniProt Q15831); experiment: cell-based; parameters: NanoBRET live-cell target engagement; % occupancy from displacement of tracer K10 on NanoLuc-kinase fusions, mean n=3; settings: HEK293, read-out: % inhibition
Description: as §1

NEK4 = NEK4 (Homo sapiens, UniProt P51957); experiment: cell-based; parameters: NanoBRET live-cell target engagement; % occupancy from displacement of tracer K10 on NanoLuc-kinase fusions, mean n=3; settings: HEK293, read-out: % inhibition
NEK4, sequence (P51957 whole entry, the tested form may be a part): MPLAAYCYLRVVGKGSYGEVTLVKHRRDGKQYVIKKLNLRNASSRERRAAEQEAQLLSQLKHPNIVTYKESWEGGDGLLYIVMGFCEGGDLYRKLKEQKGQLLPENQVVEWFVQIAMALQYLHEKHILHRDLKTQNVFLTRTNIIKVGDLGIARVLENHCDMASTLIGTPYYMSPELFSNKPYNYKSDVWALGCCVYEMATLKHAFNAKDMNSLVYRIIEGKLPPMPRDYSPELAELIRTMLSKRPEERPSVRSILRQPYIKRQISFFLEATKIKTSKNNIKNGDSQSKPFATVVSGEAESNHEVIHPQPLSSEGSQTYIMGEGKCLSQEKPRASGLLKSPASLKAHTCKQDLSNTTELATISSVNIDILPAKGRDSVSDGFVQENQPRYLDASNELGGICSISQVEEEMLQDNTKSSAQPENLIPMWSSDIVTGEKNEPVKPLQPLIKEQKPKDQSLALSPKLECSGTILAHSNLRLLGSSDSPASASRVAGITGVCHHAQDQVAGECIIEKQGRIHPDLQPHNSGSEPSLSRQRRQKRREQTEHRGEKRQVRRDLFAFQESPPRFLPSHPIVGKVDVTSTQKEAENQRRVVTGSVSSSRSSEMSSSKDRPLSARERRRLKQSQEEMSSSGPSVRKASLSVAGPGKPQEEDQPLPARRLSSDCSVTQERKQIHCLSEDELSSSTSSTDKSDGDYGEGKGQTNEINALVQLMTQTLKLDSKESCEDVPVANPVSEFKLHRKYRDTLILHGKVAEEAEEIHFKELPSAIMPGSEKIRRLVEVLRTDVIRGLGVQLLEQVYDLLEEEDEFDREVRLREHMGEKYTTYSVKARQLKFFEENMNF
Description: as §1

PKMYT1 = PKMYT1 (Homo sapiens, UniProt Q99640); experiment: cell-based; parameters: NanoBRET live-cell target engagement; % occupancy from displacement of tracer K10 on NanoLuc-kinase fusions, mean n=3; settings: HEK293, read-out: % inhibition
Description: as §1

CHEK2 = CHEK2 (Homo sapiens, UniProt O96017); experiment: cell-based; parameters: NanoBRET live-cell target engagement; % occupancy from displacement of tracer K10 on NanoLuc-kinase fusions, mean n=3; settings: HEK293, read-out: % inhibition
Description: as §1

ULK2 = ULK2 (Homo sapiens, UniProt Q8IYT8); experiment: cell-based; parameters: NanoBRET live-cell target engagement; % occupancy from displacement of tracer K10 on NanoLuc-kinase fusions, mean n=3; settings: HEK293, read-out: % inhibition
Description: as §1

MAP3K4 = MAP3K4 (Homo sapiens, UniProt Q9Y6R4); experiment: cell-based; parameters: NanoBRET live-cell target engagement; % occupancy from displacement of tracer K10 on NanoLuc-kinase fusions, mean n=3; settings: HEK293, read-out: % inhibition
Description: as §1

AXL = biological target: T7, AXL (Homo sapiens, UniProt P30530); experiment: NanoBRET target engagement, Tracer K10 displacement in live HEK293 cells; type: cell-based; settings: […] h, […] C, n = […]
T7 construct: full-length kinase, C-terminal NanoLuc fusion, transfected HEK293 cells

EPHB4 = biological target: T8, EPHB4 (Homo sapiens, UniProt P54760); experiment: as above; type: cell-based; settings: […] h, […] C, n = […]
T8 construct: full-length kinase, C-terminal NanoLuc fusion, transfected HEK293 cells
Description: NanoBRET target engagement, Tracer K10 displacement in live HEK293 cells on EPHB4

- Crizotinib % occupancy, 1 uM (EPHA4): 53 ± 4.4%
- Crizotinib % occupancy, 1 uM (NTRK1): 71 ± 2.5%
- Crizotinib % occupancy, 1 uM (SBK3): 41 ± 5.6%
- Crizotinib % occupancy, 1 uM (EPHB1): 68 ± 2.0%
- Crizotinib % occupancy, 1 uM (EPHA7): 38 ± 2.4%
- Crizotinib % occupancy, 1 uM (EPHA1): 75 ± 2.2%
- inhibition at 1 µM (MAP3K10): -1%
- inhibition at 1 µM (SIK1): -4%
- inhibition at 1 µM (PRKAA2): -6%
- inhibition at 1 µM (IRAK4): 6%
- inhibition at 1 µM (SGK1): -1%
- inhibition at 1 µM (NEK5): -6%
- inhibition at 1 µM (MAP3K19): 6%
- inhibition at 1 µM (STK11): -1%
- inhibition at 1 µM (NEK4): -12%
- inhibition at 1 µM (PKMYT1): 6%
- inhibition at 1 µM (CHEK2): 0%
- inhibition at 1 µM (ULK2): -1%
- inhibition at 1 µM (MAP3K4): -1%
- Crizotinib % occupancy, 1 uM (AXL): 68 ± 1.5%
- Crizotinib % occupancy, 1 uM (EPHB4): 62 ± 3.6%
SMILES: C[C@@H](Oc1cc(-c2cnn(C3CCNCC3)c2)cnc1N)c1c(Cl)ccc(F)c1Cl [crizotinib]
